pIC50: −log10 of the molar value.
What follows are compounds tested on SCLC strain SHP-77 (assay: MTT assay for cell survival, SCLC SHP-77 in vitro). Conditions: ED50 for killing of SCLC strain SHP-77 in vitro, 4 days, 0 = no detectable activity, read-out: SCLC SHP-77 IC50.
Type: cell-based, human
Compound `O=C(N[C@H]1CN2CCC1CC2)C(Cc1ccc(OCc2c(Cl)cccc2Cl)cc1)NC(=O)C(c1ccccc1)C1CCCCC1` (single isomer, unassigned) [M-1548 #1] has a pIC50 of 5.40.
`O=C(N[C@H]1CN2CCC1CC2)C(Cc1ccc(OCc2c(Cl)cccc2Cl)cc1)NC(=O)C(c1ccccc1)C1CCCCC1` (single isomer, unassigned) [M-1548 #2] gave a pIC50 of 4.89.
With `CC1(C)CC(NC(=O)C(NC(=O)c2ccccn2)C2Cc3ccccc3C2)CC(C)(C)N1` (stereo not drawn) [Analog M-1354, Pic-Igl-Atmp] the pIC50 was < 4.22.
With `CC1(C)CC(NC(=O)C(NC(=O)c2ccc(B(O)O)cc2)C2Cc3ccccc3C2)CC(C)(C)N1` (stereo not drawn) [Analog M-1374, Bbz-Igl-Atmp] the pIC50 was < 4.22.
With `COC(=O)CN1C(C)CN(C(=O)C(Cc2ccc(F)cc2)NC(=O)C=Cc2c(F)c(F)c(F)c(F)c2F)CC1C` (centres unmarked) [Analog M-1432, F5c-PFF-Dmmp] the pIC50 was 4.74.
In the case of `CC1(C)CC(NC(=O)C(Cc2ccc(OCc3c(Cl)cccc3Cl)cc2)NC(=O)CCCCC2SCC3NC(=O)NC32)CC(C)(C)N1` (centres unmarked) [Analog M-1436, Biot-OC2Y-Atmp], the pIC50 was < 4.22.
In the case of `CC1(C)CC(NC(=O)C(Cc2ccc(C#N)cc2)NC(=O)CCCc2c[nH]c3ccccc23)CC(C)(C)N1` (centres unmarked) [Analog M-1476, 3Ibu-PCNF-Atmp], the pIC50 was < 4.22.
In the case of `CCCCCCC(O)CC=CCCCCCCCC(=O)NC(Cc1ccc(C#N)cc1)C(=O)NC1CC(C)(C)NC(C)(C)C1` (centres unmarked) [Analog M-1478, Rio-PCNF-Atmp], the pIC50 was 4.85.
With `CC1(C)CC(NC(=O)C(Cc2ccc(C#N)cc2)NC(=O)COc2c(F)c(F)c(F)c(F)c2F)CC(C)(C)N1` (centres unmarked) [Analog M-1488, F5po-PCNF-Atmp] the pIC50 was < 4.22.
In the case of `CC1(C)CC(NC(=O)C(Cc2ccc(C#N)cc2)NC(=O)c2c(F)c(F)c(F)c(F)c2F)CC(C)(C)N1` (centres unmarked) [Analog M-1490, F5bz-PCNF-Atmp], the pIC50 was < 4.22.
Compound `CC1(C)CC(NC(=O)[C@H](Cc2ccc(C#N)cc2)NC(=O)CCCc2ccc(N(CCCl)CCCl)cc2)CC(C)(C)N1` [Analog M-1500, Chl-PCNF-Atmp] has a pIC50 of 4.60.
With `CC1(C)CC(NC(=O)C(Cc2ccc(C#N)cc2)NC(=O)C=Cc2cc(F)cc(F)c2F)CC(C)(C)N1` (centres unmarked) [Analog M-1504, F3c-PCNF-Atmp] the pIC50 was < 4.22.
In the case of `Cc1ccc(CSC(C)(C)C(NC(=O)C(C2CCCCC2)C2CCCCC2)C(=O)NC2CC(C)(C)NC(C)(C)C2)cc1` (centres unmarked) [Analog M-1514, Dca-Pen(Mbzl)-Atmp], the pIC50 was 5.14.
`CC1(C)CC(NC(=O)[C@H](Cc2ccc(C#N)cc2)NC(=O)C(C2CCCCC2)C2CCCCC2)CC(C)(C)N1` [Analog M-1516, Dca-PCNF-Atmp] gave a pIC50 of 4.96.
For `CC1(C)CC(NC(=O)[C@H](Cc2ccc(C#N)cc2)NC(=O)c2cnccn2)CC(C)(C)N1` [Analog M-1524, 2Pyz-PCNF-Atmp], the pIC50 was < 4.22.

Same assay, conditions: ED50 for killing of SCLC strain SHP-77 in vitro, 4 days, 0 = no detectable activity, read-out: SHP-77 In vitro IC50
In the case of `CC1(C)CC(NC(=O)C(Cc2ccc(OP(=O)(O)OCc3ccccc3)cc2)NC(=O)C=Cc2c(F)c(F)c(F)c(F)c2F)CC(C)(C)N1` (centres unmarked) [Analog M-1080, F5c-OBPY-Atmp], the pIC50 was < 4.22.
In the case of `CC1(C)CC(NC(=O)C(Cc2c[nH]c3ccccc23)NC(=O)C(N)CCC(=O)O)CC(C)(C)N1` (stereo not drawn) [Analog M-1120, Glu-Trp-Atmp], the pIC50 was < 4.22.
`CC1(C)CC(NC(=O)C(Cc2ccc(F)cc2)NC(=O)C=Cc2c(F)c(F)c(F)c(F)c2F)CC(C)(C)N1` (centres unmarked) [Analog M-1140, F5c-PFF-Atmp] showed a pIC50 of 4.82.
Work on `CC1(C)CC(NC(=O)C(Cc2ccc(I)cc2)NC(=O)C=Cc2c(F)c(F)c(F)c(F)c2F)CC(C)(C)N1` (centres unmarked) [Analog M-1142, F5c-PIF-Atmp] yielded a pIC50 of 5.14.
Compound `CC1(C)CC(NC(=O)C(Cc2ccc(C(F)(F)F)cc2)NC(=O)C=Cc2c(F)c(F)c(F)c(F)c2F)CC(C)(C)N1` (centres unmarked) [Analog M-1146, F5c-F3MF-Atmp] has a pIC50 of 4.92.
With `CN(C(=O)C=Cc1c(F)c(F)c(F)c(F)c1F)C(Cc1ccccc1)C(=O)NC1CC(C)(C)NC(C)(C)C1` (centres unmarked) [Analog M-1148, F5c-NMF-Atmp] the pIC50 was 4.81.
With `CC1(C)CC(NC(=O)C(NC(=O)C=Cc2c(F)c(F)c(F)c(F)c2F)C(c2ccccc2)c2ccccc2)CC(C)(C)N1` (centres unmarked) [Analog M-1150, F5c-Dip-Atmp] the pIC50 was 5.30.
In the case of `CC1(C)CC(NC(=O)C(Cc2ccc(F)cc2)NC(=O)C=Cc2ccoc2)CC(C)(C)N1` (centres unmarked) [Analog M-1152, 3-Fa-PFF-Atmp], the pIC50 was < 4.22.
Compound `CN1CCN(C(=O)C(Cc2ccc(F)cc2)NC(=O)C=Cc2c(F)c(F)c(F)c(F)c2F)CC1` (centres unmarked) [Analog M-1158, F5c-PFF-Mpz] has a pIC50 of 4.55.
Compound `CC1CN(C(=O)C(Cc2ccc(F)cc2)NC(=O)C=Cc2c(F)c(F)c(F)c(F)c2F)CC(C)N1` (centres unmarked) [Analog M-1160, F5c-PFF-Dmpz] has a pIC50 of 4.62.
With `O=C(C=Cc1c(F)c(F)c(F)c(F)c1F)NC(Cc1ccc(F)cc1)C(=O)N1CCN(c2ncccn2)CC1` (centres unmarked) [Analog M-1162, F5c-PFF-Pmpz] the pIC50 was 4.82.
Work on `O=C(C=Cc1c(F)c(F)c(F)c(F)c1F)NC(Cc1ccc(F)cc1)C(=O)N1CCN(c2ccccn2)CC1` (centres unmarked) [Analog M-1164, F5c-PFF-Pypz] yielded a pIC50 of 4.85.
For `CC1(C)CC(NC(=O)C(CCc2ccccc2)NC(=O)C=Cc2c(F)c(F)c(F)c(F)c2F)CC(C)(C)N1` (centres unmarked) [Analog M-1176, F5c-hPhe-Atmp], the pIC50 was 4.85.
With `CC1(C)CC(NC(=O)C(Cc2ccccc2)NC(=O)C=Cc2c(F)c(F)c(F)c(F)c2F)CC(C)(C)N1` (centres unmarked) [Analog M-1178, F5c-Phe-Atmp] the pIC50 was 4.82.
`O=C(C=Cc1c(F)c(F)c(F)c(F)c1F)NC(Cc1c(F)c(F)c(F)c(F)c1F)C(=O)NC1CCN(Cc2ccccc2)CC1` (centres unmarked) [Analog M-1182, F5c-F5F-Abzp] was tested, and the pIC50 was 4.71.
Work on `CC1CN(C(=O)C(Cc2c(F)c(F)c(F)c(F)c2F)NC(=O)C=Cc2c(F)c(F)c(F)c(F)c2F)CC(C)N1` (centres unmarked) [Analog M-1186, F5c-F5F-Dmpz] yielded a pIC50 of 4.96.
`O=C(C=Cc1c(F)c(F)c(F)c(F)c1F)NC(Cc1ccc(F)cc1)C(=O)N1CCN(C(c2ccccc2)c2ccc(Cl)cc2)CC1` (centres unmarked) [Analog M-1202, F5c-PFF-Cbp] was tested, and the pIC50 was 4.52.
`O=C(C=Cc1cccnc1)NC(Cc1ccc2ccccc2c1)C(=O)N1CCN(C(c2ccccc2)c2ccc(Cl)cc2)CC1` (stereo not drawn) [Analog M-1204, Pya-Nal-Cbp] gave a pIC50 of 5.12.
For `O=C(C=Cc1c(F)c(F)c(F)c(F)c1F)NC(Cc1ccc(F)cc1)C(=O)N1CCN(c2ccc(Cl)cc2)CC1` (centres unmarked) [Analog M-1208, F5c-PFF-Cpp], the pIC50 was 4.52.
For `O=C(C=Cc1cccnc1)NC(Cc1ccc(F)cc1)C(=O)N1CCN(c2ccc(Cl)cc2)CC1` (centres unmarked) [Analog M-1212, Pya-PFF-Cpp], the pIC50 was 5.00.
`O=C(C=Cc1c(F)c(F)c(F)c(F)c1F)NC1(C(=O)N(Cc2ccccn2)Cc2ccccn2)Cc2ccccc2C1` [Analog M-1218, F5c-Aic-Dpic] showed a pIC50 of 4.85.
Compound `O=C(C=Cc1c(F)c(F)c(F)c(F)c1F)NC(Cc1ccc(I)cc1)C(=O)N1CCN(c2ccccn2)CC1` (centres unmarked) [Analog M-1248, F5c-PIF-Pypz] has a pIC50 of 4.89.
Work on `O=C(C=Cc1c(F)c(F)c(F)c(F)c1F)NC(Cc1ccc2ccccc2c1)C(=O)N1CCC(N2CCCCC2)CC1` (centres unmarked) [Analog M-1250, F5c-Nal-Pipp] yielded a pIC50 of 5.12.
For `O=C(C=Cc1cc(C(F)(F)F)cc(C(F)(F)F)c1)NC(Cc1ccc(I)cc1)C(=O)N1CCN(c2ccccn2)CC1` (centres unmarked) [Analog M-1252, Tf2c-PIF-Pypz], the pIC50 was < 4.22.
`CC1CN(C(=O)C(Cc2ccc(I)cc2)NC(=O)C=Cc2c(F)c(F)c(F)c(F)c2F)CC(C)N1` (centres unmarked) [Analog M-1254, F5c-PIF-Dmpz] showed a pIC50 of 5.00.
For `O=C(C=Cc1c(F)c(F)c(F)c(F)c1F)NC(Cc1ccc(I)cc1)C(=O)N(Cc1ccccn1)Cc1ccccn1` (centres unmarked) [Analog M-1256, F5c-PIF-Dpic], the pIC50 was 4.89.

Reference: US7858349B2, “Anti-cancer compounds” (The Regents of the University of Colorado, priority 1999, dated 2010)
